Activity calls are given as the source filed them. The rule behind the calls is not given here.
Columns and labels:
[1] = biological target: T1, Nuclear factor erythroid 2-related factor 2 (Homo sapiens) (UniProt Q16236); assay: Induction of Nrf2/ARE activation in human Hela cells at 10 uM measured after 12 to 24 hrs by luciferase reporter gene assay relative to control; type: cell-based; details: filed as activator, time 12-24 hrs
T1 sequence (whole entry): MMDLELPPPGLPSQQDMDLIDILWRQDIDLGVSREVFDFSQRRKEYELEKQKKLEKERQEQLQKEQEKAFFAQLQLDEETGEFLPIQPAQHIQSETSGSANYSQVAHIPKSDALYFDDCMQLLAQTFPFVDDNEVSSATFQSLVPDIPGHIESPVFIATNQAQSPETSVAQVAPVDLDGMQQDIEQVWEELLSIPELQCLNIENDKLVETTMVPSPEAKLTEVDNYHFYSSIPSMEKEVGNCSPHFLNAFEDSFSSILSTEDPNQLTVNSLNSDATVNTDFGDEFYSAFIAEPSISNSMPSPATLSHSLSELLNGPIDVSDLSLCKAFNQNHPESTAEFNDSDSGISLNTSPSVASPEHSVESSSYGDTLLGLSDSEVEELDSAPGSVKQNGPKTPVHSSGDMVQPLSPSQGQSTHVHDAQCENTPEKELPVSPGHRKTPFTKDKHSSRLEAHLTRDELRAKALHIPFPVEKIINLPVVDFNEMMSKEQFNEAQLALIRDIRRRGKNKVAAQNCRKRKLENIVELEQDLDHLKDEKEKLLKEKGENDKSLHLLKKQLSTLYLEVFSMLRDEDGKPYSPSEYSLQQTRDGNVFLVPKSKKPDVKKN

[2] = biological target: T1, Nuclear factor erythroid 2-related factor 2 (Homo sapiens); assay: Induction of Nrf2/ARE activation in human Hela cells at 1 uM measured after 12 to 24 hrs by luciferase reporter gene assay relative to control; type: cell-based; details: filed as activator, time 12-24 hrs
[3] = biological target: T1, Nuclear factor erythroid 2-related factor 2 (Homo sapiens); assay: Induction of Nrf2/ARE activation in human Hela cells at 5 uM measured after 12 to 24 hrs by luciferase reporter gene assay relative to control; type: cell-based; details: filed as activator, time 12-24 hrs
[4] = biological target: T1, Nuclear factor erythroid 2-related factor 2 (Homo sapiens); assay: Induction of Nrf2/ARE activation in human Hela cells at 20 uM measured after 12 to 24 hrs by luciferase reporter gene assay relative to control; type: cell-based; details: filed as activator, time 12-24 hrs
HUVEC [5] = assay: Cytoprotective activity against oxLDL-induced HUVEC cell damage assessed as increase in cell viability at 10 uM by SRB assay; type: functional, cell-based; details: Homo sapiens
HUVEC [6] = assay: Cytotoxicity against HUVEC assessed as effect on cell viability by SRB assay; type: toxicity, cell-based; details: human
[7] = biological target: T1, Nuclear factor erythroid 2-related factor 2 (Homo sapiens); assay: Induction of Nrf2 nuclear translocation in oxLDL-induced HUVEC cells at 5 to 10 uM measured after 6 hrs by immunofluorescence staining analysis; type: cell-based; details: filed as activator, dose 5-10 µM
HUVEC [8] = assay: Cytoprotective activity against high glucose-induced HUVEC cell damage assessed as increase in cell viability at 10 uM by SRB assay; type: functional, cell-based; details: Homo sapiens
HUVEC [9] = assay: Cytoprotective activity against high glucose-induced apoptosis in HUVEC cells measured after 24 hrs by TUNEL assay; type: functional, cell-based; details: Homo sapiens, dose 5-10 µM
[10] = biological target: T1, Nuclear factor erythroid 2-related factor 2 (Homo sapiens); assay: Induction of Nrf2 nuclear translocation in high glucose-induced HUVEC cells at 5 to 10 uM measured after 24 hrs by immunofluorescence staining analysis; type: cell-based; details: filed as activator, dose 5-10 µM
HUVEC [11] = assay: Cytoprotective activity against oxLDL-induced apoptosis in HUVEC cells measured after 6 hrs by TUNEL assay; type: functional, cell-based; details: Homo sapiens, dose 5-10 µM

fold change (FC) [1]	fold change (FC) [2]	fold change (FC) [3]	fold change (FC) [4]	Activity [7]	Activity [10]	Structure (SMILES)	Activity (HUVEC [5])	Activity (HUVEC [6])	Activity (HUVEC [8])	Activity (HUVEC [9])	Activity (HUVEC [11])
1.96	1.22	1.65	2.07	–	–	COc1ccc(/C=C/C(=O)N2CCN(Cc3noc(Cc4c[nH]c5ccccc45)n3)CC2)cc1	–	–	–	–	–
7.04	2.3	4.71	7.21	–	–	O=C(/C=C/c1cccc(O)c1)N1CCN(Cc2noc(Cc3c[nH]c4ccccc34)n2)CC1	Active	Non-Toxic	–	–	–
6.64	1.34	3.76	7.09	–	–	O=C(/C=C/c1ccc(Cl)c(Cl)c1)N1CCN(Cc2noc(Cc3c[nH]c4ccccc34)n2)CC1	Active	Non-Toxic	–	–	–
5.79	1.32	2.79	5.46	–	–	COc1cc(OC)c(OC)cc1/C=C/C(=O)N1CCN(Cc2noc(Cc3c[nH]c4ccccc34)n2)CC1	inactive	Non-Toxic	–	–	–
1.98	1.17	1.24	2.78	–	–	CC(C)(C)c1cc(O)ccc1O	–	–	–	–	–
6.25	1.52	3.44	5.41	–	–	O=C(/C=C/c1ccc(O)cc1)N1CCN(Cc2noc(Cc3c[nH]c4ccccc34)n2)CC1	inactive	Non-Toxic	–	–	–
1.23	1.04	1.11	1.36	–	–	Cc1ccc(C(=O)N2CCN(Cc3noc(Cc4c[nH]c5ccccc45)n3)CC2)cc1	–	–	–	–	–
2.97	1.09	1.89	4.07	–	–	COc1cccc(/C=C/C(=O)N2CCN(Cc3noc(Cc4c[nH]c5ccccc45)n3)CC2)c1	–	–	–	–	–
1.44	1.03	1.31	1.21	–	–	O=C(c1ccccc1)N1CCN(Cc2noc(Cc3c[nH]c4ccccc34)n2)CC1	–	–	–	–	–
1.52	1.45	1.5	1.67	–	–	CS(=O)(=O)c1ccc(C(=O)N2CCN(Cc3noc(Cc4c[nH]c5ccccc45)n3)CC2)cc1	–	–	–	–	–
5.79	1.34	2.93	7.22	–	–	COc1ccc(/C=C/C(=O)N2CCN(Cc3noc(Cc4c[nH]c5ccccc45)n3)CC2)cc1OC	–	–	–	–	–
5.88	1.38	3.14	5.18	Active	Active	N#Cc1ccc(CN2CCN(Cc3noc(Cc4c[nH]c5ccccc45)n3)CC2)cc1	Active	Non-Toxic	Active	Dose-Dependent Effect	Dose-Dependent Effect
6.92	1.41	2.96	7.86	–	–	O=C(/C=C/c1ccc(O)c(O)c1)N1CCN(Cc2noc(Cc3c[nH]c4ccccc34)n2)CC1	–	–	–	–	–
1.54	1.36	1.42	1.86	–	–	Fc1cccc(CN2CCN(Cc3noc(Cc4c[nH]c5ccccc45)n3)CC2)c1	–	–	–	–	–
3.14	1.45	2.16	3.56	–	–	Brc1ccc(CN2CCN(Cc3noc(Cc4c[nH]c5ccccc45)n3)CC2)cc1	–	–	–	–	–
3.12	1.23	2.41	4.25	–	–	COc1ccccc1/C=C/C(=O)N1CCN(Cc2noc(Cc3c[nH]c4ccccc34)n2)CC1	–	–	–	–	–
1.28	1.15	1.21	1.52	–	–	O=C(c1ccc(Br)cc1)N1CCN(Cc2noc(Cc3c[nH]c4ccccc34)n2)CC1	–	–	–	–	–

fold change (FC) [1]	fold change (FC) [2]	fold change (FC) [3]	fold change (FC) [4]	Activity [7]	Activity [10]	Structure (SMILES)	Activity (HUVEC [5])	Activity (HUVEC [6])	Activity (HUVEC [8])	Activity (HUVEC [9])	Activity (HUVEC [11])
1.37	1.18	1.25	1.4	–	–	N#Cc1ccc(C(=O)N2CCN(Cc3noc(Cc4c[nH]c5ccccc45)n3)CC2)cc1	–	–	–	–	–
3.15	1.11	2.04	3.78	–	–	CS(=O)(=O)c1ccc(CN2CCN(Cc3noc(Cc4c[nH]c5ccccc45)n3)CC2)cc1	–	–	–	–	–
6.91	2.15	3.65	6.37	–	–	COc1cccc(/C=C/C(=O)N2CCN(Cc3noc(Cc4c[nH]c5ccccc45)n3)CC2)c1OC	inactive	Non-Toxic	–	–	–
6.23	1.24	2.6	6.86	–	–	COc1cc(/C=C/C(=O)N2CCN(Cc3noc(Cc4c[nH]c5ccccc45)n3)CC2)cc(OC)c1OC	–	–	–	–	–
2.57	1.05	1.32	2.89	–	–	O=C(/C=C/c1ccccc1)N1CCN(Cc2noc(Cc3c[nH]c4ccccc34)n2)CC1	–	–	–	–	–
1.64	1.09	1.51	2.09	–	–	c1ccc(CN2CCN(Cc3noc(Cc4c[nH]c5ccccc45)n3)CC2)cc1	–	–	–	–	–
2.11	1.18	1.78	2.45	–	–	Cc1ccc(CN2CCN(Cc3noc(Cc4c[nH]c5ccccc45)n3)CC2)cc1	–	–	–	–	–
4.09	1.21	2.24	6.12	–	–	O=C(/C=C/c1ccc(Cl)cc1)N1CCN(Cc2noc(Cc3c[nH]c4ccccc34)n2)CC1	Active	Non-Toxic	–	–	–
2.65	1.23	1.87	3.08	–	–	COc1cc(/C=C/C(=O)N2CCN(Cc3noc(Cc4c[nH]c5ccccc45)n3)CC2)cc(OC)c1O	–	–	–	–	–
3.97	1.31	1.86	2.56	–	–	O=C(/C=C/c1cccc(Br)c1)N1CCN(Cc2noc(Cc3c[nH]c4ccccc34)n2)CC1	inactive	Non-Toxic	–	–	–
1.86	1.09	1.51	2.04	–	–	c1ccc2cc(CN3CCN(Cc4noc(Cc5c[nH]c6ccccc56)n4)CC3)ccc2c1	–	–	–	–	–
6.31	1.2	3.01	6.08	–	–	O=C(/C=C/c1ccccc1O)N1CCN(Cc2noc(Cc3c[nH]c4ccccc34)n2)CC1	–	–	–	–	–
4.97	1.12	2.07	3.24	–	–	O=C(/C=C/c1ccc2c(c1)OCO2)N1CCN(Cc2noc(Cc3c[nH]c4ccccc34)n2)CC1	–	–	–	–	–
4.35	1.12	1.77	3.66	–	–	COc1ccc(OC)c(/C=C/C(=O)N2CCN(Cc3noc(Cc4c[nH]c5ccccc45)n3)CC2)c1	–	–	–	–	–
1.43	1.15	1.12	1.47	–	–	COc1cccc(CN2CCN(Cc3noc(Cc4c[nH]c5ccccc45)n3)CC2)c1	–	–	–	–	–
3.12	1.29	2.34	3.56	–	–	COc1cc(/C=C/C(=O)N2CCN(Cc3noc(Cc4c[nH]c5ccccc45)n3)CC2)ccc1O	–	–	–	–	–
1.31	1.12	1.25	1.54	–	–	Brc1cccc(CN2CCN(Cc3noc(Cc4c[nH]c5ccccc45)n3)CC2)c1	–	–	–	–	–

From ChEMBL document CHEMBL5365471, “Discovery of marine phidianidine-based Nrf2 activators and their potential against oxLDL- and HG-induced injury in HUVECs” (Bioorg Med Chem Lett, 2023)
